Measured values: PMC6934184, “Selective DNA-PKcs inhibition extends the therapeutic index of localized radiotherapy and chemotherapy” (The Journal of Clinical Investigation, 2019)

Target: T1, DDR1 (Homo sapiens, UniProt Q08345)
T1 construct: purchased Thermo Fisher Scientific (Life Technologies) SelectScreen
Assay: SelectScreen LanthaScreen
Type: binding
Conditions: read-out: % displacement
Summary of the method: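 SelectScreen broad panel; activity (Z'LYTE, Adapta) plus binding formats. ATP: Km app for CSF1R Z'LYTE; 10 for CAMK1 Adapta. Readout = % per kinase.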

T1 sequence (Q08345 19-913): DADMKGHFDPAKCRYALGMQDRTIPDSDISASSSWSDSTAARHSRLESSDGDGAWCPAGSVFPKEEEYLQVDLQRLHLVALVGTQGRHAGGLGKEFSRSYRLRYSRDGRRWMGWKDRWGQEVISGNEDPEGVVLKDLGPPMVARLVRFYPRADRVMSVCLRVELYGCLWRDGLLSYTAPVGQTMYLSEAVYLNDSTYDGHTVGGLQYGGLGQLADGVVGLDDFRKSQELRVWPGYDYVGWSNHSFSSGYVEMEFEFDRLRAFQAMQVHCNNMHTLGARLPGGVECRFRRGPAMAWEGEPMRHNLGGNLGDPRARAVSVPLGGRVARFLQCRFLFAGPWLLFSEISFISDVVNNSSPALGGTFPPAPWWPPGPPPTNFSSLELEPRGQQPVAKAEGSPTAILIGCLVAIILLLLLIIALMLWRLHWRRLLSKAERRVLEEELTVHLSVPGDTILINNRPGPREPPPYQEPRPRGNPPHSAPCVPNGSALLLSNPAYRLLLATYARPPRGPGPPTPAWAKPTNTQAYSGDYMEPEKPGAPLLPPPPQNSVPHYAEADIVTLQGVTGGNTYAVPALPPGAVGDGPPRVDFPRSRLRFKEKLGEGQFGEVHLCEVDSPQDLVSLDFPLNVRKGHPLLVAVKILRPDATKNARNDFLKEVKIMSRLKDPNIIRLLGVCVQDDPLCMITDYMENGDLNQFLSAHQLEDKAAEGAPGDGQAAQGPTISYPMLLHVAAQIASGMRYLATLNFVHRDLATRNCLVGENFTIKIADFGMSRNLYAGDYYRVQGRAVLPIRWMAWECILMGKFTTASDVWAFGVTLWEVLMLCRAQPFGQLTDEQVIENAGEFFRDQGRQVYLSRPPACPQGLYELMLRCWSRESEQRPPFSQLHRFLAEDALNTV

## CN(C(=O)CN1CCOCC1)c1ccc2sc3c(-c4cccc5c(=O)cc(N6CC7CCC(C6)O7)oc45)cccc3c2c1 [NU5455]
  inhibition at 1 µM: -1.8%
